Where a name gives a salt, the structure may show the parent alone.
Tests used:
[1] = molecular target: T1, P2Y6R (Homo sapiens, UniProt Q15077); assay: Fluorescent ligand binding of 28 by flow cytometry; settings: 100 nM for 30 min at 37 °C in the presence of 125 (100 μM)
[2] = molecular target: T1, P2Y6R; assay: Fluorescence microscopy of P2Y6R-expressing 1321N1 astrocytoma cells; format: cell-based; settings: 1 μM, 30 min at 37 °C, in presence and absence of 118 (10 μM)

T1 sequence (Q15077 whole entry): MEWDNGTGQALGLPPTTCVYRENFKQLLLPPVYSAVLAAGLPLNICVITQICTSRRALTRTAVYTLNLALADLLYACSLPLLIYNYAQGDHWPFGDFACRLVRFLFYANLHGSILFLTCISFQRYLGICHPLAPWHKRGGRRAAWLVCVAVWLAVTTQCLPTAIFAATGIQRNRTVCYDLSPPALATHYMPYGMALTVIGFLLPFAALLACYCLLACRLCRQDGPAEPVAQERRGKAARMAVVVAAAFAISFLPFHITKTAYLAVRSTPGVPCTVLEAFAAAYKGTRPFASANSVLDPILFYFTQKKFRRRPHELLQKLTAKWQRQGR

## O=C(CCCCCNC(=O)COc1ccc(/C=C/c2ccc3n2[B-](F)(F)[N+]2=C(c4cccs4)C=CC2=C3)cc1)NCCCn1cc(CCNC(=O)COc2ccc(CCCO/N=c3/ccn([C@@H]4O[C@H](COP(=O)(O)OP(=O)(O)OP(=O)(O)O)[C@@H](O)[C@H]4O)c(=O)[nH]3)cc2)nn1 [Compound 28, N^4-(3-((4-O-CH2CONH-(CH2)2(BODIPY-1H-1,2,3-Triazol-4-yl))phenyl)propyloxy)cytidine-5′-triphosphate Triethylammonium Salt]
[1]
  Cell labeling by fluorescent ligand (FCM): significant cell labeling
[2]
  Labeling of cells expressing the receptor (fluorescence microscopy): specifically labeled cells expressing the receptor
